In publication PMC4483627 (Marine Drugs, 2015):
Values joined by “and” are separate entries in the source; they are usually repeats but may differ in a detail not shown here. Equal entries are not always repeated. Positions of bridges follow the written chain, without caps; N, C: chain ends. Residues, ends and D or L forms follow the SMILES beside them.

Key:
Test in all cases: cell-based
rat nAChR α7 = target: T1, rat nAChR α7 (Rattus norvegicus, UniProt Q05941)
T1 construct: expressed in transfected cells; host or cells: Xenopus oocytes injected with cRNA
T1 sequence (Q05941 23-502 limits assumed): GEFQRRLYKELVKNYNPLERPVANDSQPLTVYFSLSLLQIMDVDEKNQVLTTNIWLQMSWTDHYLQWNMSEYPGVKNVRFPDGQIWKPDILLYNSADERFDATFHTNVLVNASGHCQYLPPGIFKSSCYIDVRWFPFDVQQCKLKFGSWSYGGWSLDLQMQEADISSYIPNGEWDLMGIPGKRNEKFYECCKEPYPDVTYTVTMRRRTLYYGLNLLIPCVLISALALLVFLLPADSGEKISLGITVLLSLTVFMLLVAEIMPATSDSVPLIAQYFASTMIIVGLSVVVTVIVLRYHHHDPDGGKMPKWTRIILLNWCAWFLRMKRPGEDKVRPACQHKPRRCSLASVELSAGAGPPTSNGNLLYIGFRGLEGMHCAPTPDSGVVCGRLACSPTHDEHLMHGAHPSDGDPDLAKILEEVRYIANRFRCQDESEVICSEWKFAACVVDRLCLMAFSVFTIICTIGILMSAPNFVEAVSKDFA

rat nAChR α2β4 = target: T2, rat nAChR α2β4 (Rattus norvegicus, UniProt P12389+P12392); conditions: for IC50: IC50 α2β4
T2 construct: expressed in transfected cells; host or cells: Xenopus oocytes injected with cRNA
T2 sequence (P12389 28-511 limits assumed): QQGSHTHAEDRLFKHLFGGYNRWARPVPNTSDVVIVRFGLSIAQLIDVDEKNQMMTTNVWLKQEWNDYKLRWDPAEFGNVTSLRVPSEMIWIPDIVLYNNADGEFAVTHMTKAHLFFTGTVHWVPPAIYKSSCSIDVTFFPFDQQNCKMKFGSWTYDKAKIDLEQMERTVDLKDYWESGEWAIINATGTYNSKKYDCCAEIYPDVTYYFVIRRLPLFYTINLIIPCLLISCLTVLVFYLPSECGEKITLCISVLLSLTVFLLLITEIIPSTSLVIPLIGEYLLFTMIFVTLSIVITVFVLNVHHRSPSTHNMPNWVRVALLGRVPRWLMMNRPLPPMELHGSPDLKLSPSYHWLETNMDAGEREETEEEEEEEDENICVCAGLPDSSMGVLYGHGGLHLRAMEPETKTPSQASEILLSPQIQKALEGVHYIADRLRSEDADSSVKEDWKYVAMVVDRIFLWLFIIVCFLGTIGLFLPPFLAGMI
T2 sequence (P12392 21-495 limits assumed): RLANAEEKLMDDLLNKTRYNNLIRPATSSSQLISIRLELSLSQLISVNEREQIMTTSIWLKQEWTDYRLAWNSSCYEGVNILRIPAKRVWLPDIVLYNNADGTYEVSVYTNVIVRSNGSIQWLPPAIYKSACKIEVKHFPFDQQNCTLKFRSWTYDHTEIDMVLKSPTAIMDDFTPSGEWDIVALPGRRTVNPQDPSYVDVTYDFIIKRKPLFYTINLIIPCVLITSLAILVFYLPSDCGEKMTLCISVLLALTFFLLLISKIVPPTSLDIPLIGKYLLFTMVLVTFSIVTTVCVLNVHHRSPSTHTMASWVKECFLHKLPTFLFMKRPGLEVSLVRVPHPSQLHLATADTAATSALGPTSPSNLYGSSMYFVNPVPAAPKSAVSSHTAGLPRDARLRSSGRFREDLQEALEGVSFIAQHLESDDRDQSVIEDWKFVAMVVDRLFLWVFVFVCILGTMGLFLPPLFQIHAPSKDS

rat nAChR α9α10 = target: T3, rat nAChR α9α10 (Rattus norvegicus, UniProt P43144+Q9JLB5)
T3 construct: expressed in transfected cells; host or cells: Xenopus oocytes injected with cRNA
T3 sequence (P43144 26-479 limits assumed): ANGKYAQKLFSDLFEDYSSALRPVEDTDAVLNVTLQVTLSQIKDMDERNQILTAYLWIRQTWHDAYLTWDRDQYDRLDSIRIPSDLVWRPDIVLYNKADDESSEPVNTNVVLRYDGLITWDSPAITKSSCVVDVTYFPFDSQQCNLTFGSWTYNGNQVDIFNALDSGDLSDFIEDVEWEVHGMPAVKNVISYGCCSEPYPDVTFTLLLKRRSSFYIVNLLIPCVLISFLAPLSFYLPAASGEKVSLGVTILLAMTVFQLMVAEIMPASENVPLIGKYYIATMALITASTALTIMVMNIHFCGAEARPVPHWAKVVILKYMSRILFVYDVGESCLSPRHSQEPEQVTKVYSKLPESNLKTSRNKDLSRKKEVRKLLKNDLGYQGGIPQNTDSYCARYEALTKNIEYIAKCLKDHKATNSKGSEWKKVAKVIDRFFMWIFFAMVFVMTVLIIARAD
T3 sequence (Q9JLB5 25-447 limits assumed): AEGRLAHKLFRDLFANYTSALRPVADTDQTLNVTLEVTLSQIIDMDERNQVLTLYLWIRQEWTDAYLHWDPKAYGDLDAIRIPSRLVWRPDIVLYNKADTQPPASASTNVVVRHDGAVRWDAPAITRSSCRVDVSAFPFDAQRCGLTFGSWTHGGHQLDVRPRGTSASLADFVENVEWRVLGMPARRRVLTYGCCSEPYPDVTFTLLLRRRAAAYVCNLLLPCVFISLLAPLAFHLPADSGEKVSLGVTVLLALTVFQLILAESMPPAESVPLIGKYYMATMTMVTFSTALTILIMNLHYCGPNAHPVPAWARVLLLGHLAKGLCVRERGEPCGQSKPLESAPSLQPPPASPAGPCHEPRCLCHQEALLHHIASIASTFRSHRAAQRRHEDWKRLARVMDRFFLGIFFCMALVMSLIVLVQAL

rat nAChR α3β2 [1] = target: T4, rat nAChR α3β2 (Rattus norvegicus, UniProt P04757+P12390); assay type: cell-based
T4 construct: expressed in transfected cells; host or cells: Xenopus oocytes injected with cRNA
T4 sequence (P04757 26-499 limits assumed): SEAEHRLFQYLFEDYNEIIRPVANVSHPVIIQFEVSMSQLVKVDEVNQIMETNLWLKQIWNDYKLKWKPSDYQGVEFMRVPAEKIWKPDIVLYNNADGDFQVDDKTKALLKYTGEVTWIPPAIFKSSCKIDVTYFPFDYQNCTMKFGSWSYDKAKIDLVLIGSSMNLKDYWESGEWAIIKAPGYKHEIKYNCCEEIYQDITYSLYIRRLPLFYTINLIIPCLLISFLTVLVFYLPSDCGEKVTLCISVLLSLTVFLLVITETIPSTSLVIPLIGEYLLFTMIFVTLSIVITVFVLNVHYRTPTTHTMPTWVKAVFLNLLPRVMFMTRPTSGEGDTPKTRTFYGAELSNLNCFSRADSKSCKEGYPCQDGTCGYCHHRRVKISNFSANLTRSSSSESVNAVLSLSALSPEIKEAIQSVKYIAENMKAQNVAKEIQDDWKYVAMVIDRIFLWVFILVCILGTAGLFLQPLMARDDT
T4 sequence (P12390 25-500 limits assumed): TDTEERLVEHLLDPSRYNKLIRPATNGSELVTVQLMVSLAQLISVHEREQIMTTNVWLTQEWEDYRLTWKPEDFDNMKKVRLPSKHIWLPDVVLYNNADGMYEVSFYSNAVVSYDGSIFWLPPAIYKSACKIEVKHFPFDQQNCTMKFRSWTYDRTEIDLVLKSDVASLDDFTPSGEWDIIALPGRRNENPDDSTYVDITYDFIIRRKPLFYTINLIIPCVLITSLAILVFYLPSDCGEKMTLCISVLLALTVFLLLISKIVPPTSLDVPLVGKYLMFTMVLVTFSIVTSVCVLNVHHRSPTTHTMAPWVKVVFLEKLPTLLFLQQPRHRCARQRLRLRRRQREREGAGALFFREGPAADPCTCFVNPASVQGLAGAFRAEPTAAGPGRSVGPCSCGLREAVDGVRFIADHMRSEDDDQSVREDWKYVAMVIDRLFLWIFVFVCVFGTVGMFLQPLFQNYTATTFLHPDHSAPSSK

rat nAChR α3β4 = target: T5, rat nAChR α3β4 (Rattus norvegicus, UniProt P04757+P12392)
T5 construct: expressed in transfected cells; host or cells: Xenopus oocytes injected with cRNA
T5 sequence (P04757 26-499 limits assumed): as the sequence (P04757 26-499 limits assumed) above
T5 sequence (P12392 21-495 limits assumed): as the sequence (P12392 21-495 limits assumed) above

rat nAChR α3β2 [2] = target: T4, rat nAChR α3β2; assay type: cell-based; remark: listed apart in the source

`CC(C)C[C@@H]1NC(=O)[C@H](CCC(=O)O)NC(=O)[C@@H]2CCCN2C(=O)[C@H](Cc2c[nH]cn2)NC(=O)[C@H](CC(N)=O)NC(=O)[C@H](C(C)C)NC(=O)[C@H](Cc2c[nH]cn2)NC(=O)[C@@H]2CSSC[C@H](NC(=O)[C@H](C)NC(=O)[C@@H]3CCCN3)C(=O)N[C@@H](CSSC[C@@H](C(N)=O)NC1=O)C(=O)N[C@@H]([C@@H](C)O)C(=O)N[C@@H](Cc1c[nH]cn1)C(=O)N1CCC[C@H]1C(=O)N[C@@H](C)C(=O)N2` [Mr1.7[E2A,S12N]] (H-PACCTHPACHVNHPELC-NH2; disulfide 3-9, 4-17) showed an IC50 (rat nAChR α7) of 591 nM, an IC50 (rat nAChR α2β4) of 3490 nM and an IC50 (rat nAChR α9α10) greater than 10000 nM. The kon (rat nAChR α3β2 [1]) was 73800 M⁻¹ s⁻¹, the koff (rat nAChR α3β2 [1]; SEM) was 0.00173 s⁻¹ and the IC50 (rat nAChR α3β4) was 556 nM.

In the case of `CC(C)C[C@@H]1NC(=O)[C@H](CCC(=O)O)NC(=O)[C@@H]2CCCN2C(=O)[C@H](Cc2c[nH]cn2)NC(=O)[C@H](CO)NC(=O)[C@H](C(C)C)NC(=O)[C@H](Cc2c[nH]cn2)NC(=O)[C@@H]2CSSC[C@H](NC(=O)[C@H](C)NC(=O)[C@@H]3CCCN3)C(=O)N[C@@H](CSSC[C@@H](C(N)=O)NC1=O)C(=O)N[C@@H]([C@@H](C)O)C(=O)N[C@@H](Cc1c[nH]cn1)C(=O)N1CCC[C@H]1C(=O)N[C@@H](C)C(=O)N2` [Mr1.7[E2A]] (H-PACCTHPACHVSHPELC-NH2; disulfide 3-9, 4-17), the IC50 (rat nAChR α7) is reported as greater than 10000 nM, the “selectivity index (SI) for α3β2” value (rat nAChR α3β2 [2]) is reported as greater than 847 and the IC50 (rat nAChR α2β4) is reported as greater than 10000 nM. It also gave an IC50 (rat nAChR α9α10) greater than 10000 nM, a kon (rat nAChR α3β2 [1]) of 86300 M⁻¹ s⁻¹ and a koff (rat nAChR α3β2 [1]; SEM) of 0.0028 s⁻¹. For the same compound, the IC50 (rat nAChR α3β4) was greater than 10000 nM.

Work on `CC(C)C[C@@H]1NC(=O)[C@H](CCC(=O)O)NC(=O)[C@@H]2CCCN2C(=O)[C@H](Cc2c[nH]cn2)NC(=O)[C@H](CC(N)=O)NC(=O)CNC(=O)[C@H](Cc2c[nH]cn2)NC(=O)[C@@H]2CSSC[C@H](NC(=O)CN)C(=O)N[C@@H](CSSC[C@@H](C(N)=O)NC1=O)C(=O)N[C@@H]([C@@H](C)O)C(=O)N[C@@H](Cc1c[nH]cn1)C(=O)N1CCC[C@H]1C(=O)N[C@@H](C)C(=O)N2` [Mr1.7[E2G,V11G,S12N,Δ1]] (H-GCCTHPACHGNHPELC-NH2; disulfide 2-8, 3-16; N-terminus assumed) yielded an IC50 (rat nAChR α7) greater than 10000 nM, a α7/α3β2 (rat nAChR α7) greater than 2272 and a α2β4/α3β2 (rat nAChR α2β4) of 89. For the same compound, the IC50 (rat nAChR α2β4) was 390 nM, the IC50 (rat nAChR α9α10) was greater than 10000 nM and the α9α10/α3β2 (rat nAChR α9α10) was greater than 2272. The “50% recovery from block” value (rat nAChR α3β2 [1]) was 3.3 min, the kon (rat nAChR α3β2 [1]) was 208000 M⁻¹ s⁻¹ and the t1/2 (rat nAChR α3β2 [1]) was 3.286 (2.842–3.894) min. For the same compound, the kobs (rat nAChR α3β2 [1]; SEM) was 1.460 ± 0.2516 min⁻¹, the koff (rat nAChR α3β2 [1]; SEM) was 0.00352 s⁻¹ and the IC50 (rat nAChR α3β4) was 125 nM. It also gave a α3β4/α3β2 (rat nAChR α3β4) of 27.

`CC(C)C[C@@H]1NC(=O)[C@H](CCC(=O)O)NC(=O)[C@@H]2CCCN2C(=O)[C@H](Cc2c[nH]cn2)NC(=O)[C@H](CO)NC(=O)[C@H](C(C)C)NC(=O)[C@H](C)NC(=O)[C@@H]2CSSC[C@H](NC(=O)[C@H](CCC(=O)O)NC(=O)[C@@H]3CCCN3)C(=O)N[C@@H](CSSC[C@@H](C(N)=O)NC1=O)C(=O)N[C@@H]([C@@H](C)O)C(=O)N[C@@H](Cc1c[nH]cn1)C(=O)N1CCC[C@H]1C(=O)N[C@@H](C)C(=O)N2` [Mr1.7[H10A]] (H-PECCTHPACAVSHPELC-NH2; disulfide 3-9, 4-17) showed an IC50 (rat nAChR α3β2 [2]) of 123 nM.

`CC(C)C[C@@H]1NC(=O)[C@H](CCC(=O)O)NC(=O)[C@@H]2CCCN2C(=O)[C@H](C)NC(=O)[C@H](CO)NC(=O)[C@H](C(C)C)NC(=O)[C@H](Cc2c[nH]cn2)NC(=O)[C@@H]2CSSC[C@H](NC(=O)[C@H](CCC(=O)O)NC(=O)[C@@H]3CCCN3)C(=O)N[C@@H](CSSC[C@@H](C(N)=O)NC1=O)C(=O)N[C@@H]([C@@H](C)O)C(=O)N[C@@H](Cc1c[nH]cn1)C(=O)N1CCC[C@H]1C(=O)N[C@@H](C)C(=O)N2` [Mr1.7[H13A]] (H-PECCTHPACHVSAPELC-NH2; disulfide 3-9, 4-17; N-terminus assumed) gave an IC50 (rat nAChR α3β2 [2]) greater than 10000 nM.

`CC(C)C[C@@H]1NC(=O)[C@H](CCC(=O)O)NC(=O)[C@@H]2CCCN2C(=O)[C@H](Cc2c[nH]cn2)NC(=O)[C@H](CO)NC(=O)[C@H](C(C)C)NC(=O)[C@H](Cc2c[nH]cn2)NC(=O)[C@@H]2CSSC[C@H](NC(=O)[C@H](CCC(=O)O)NC(=O)[C@H](C)N)C(=O)N[C@@H](CSSC[C@@H](C(N)=O)NC1=O)C(=O)N[C@@H]([C@@H](C)O)C(=O)N[C@@H](Cc1c[nH]cn1)C(=O)N1CCC[C@H]1C(=O)N[C@@H](C)C(=O)N2` [Mr1.7[P1A]] (H-AECCTHPACHVSHPELC-NH2; disulfide 3-9, 4-17) gave an IC50 (rat nAChR α3β2 [2]) of 42 nM.

For `CC(C)C[C@@H]1NC(=O)[C@H](CCC(=O)O)NC(=O)[C@@H]2CCCN2C(=O)[C@H](Cc2c[nH]cn2)NC(=O)[C@H](CC(N)=O)NC(=O)[C@H](C(C)C)NC(=O)[C@H](Cc2c[nH]cn2)NC(=O)[C@@H]2CSSC[C@H](NC(=O)[C@H](CCC(=O)O)NC(=O)[C@@H]3CCCN3)C(=O)N[C@@H](CSSC[C@@H](C(N)=O)NC1=O)C(=O)N[C@@H]([C@@H](C)O)C(=O)N[C@@H](Cc1c[nH]cn1)C(=O)N1CCC[C@H]1C(=O)N[C@@H](C)C(=O)N2` [Mr1.7[S12N]] (H-PECCTHPACHVNHPELC-NH2; disulfide 3-9, 4-17), the IC50 (rat nAChR α7) was 220 nM, the IC50 (rat nAChR α2β4) was 370 nM and 367 nM and the IC50 (rat nAChR α9α10) was greater than 10000 nM. For the same compound, the kon (rat nAChR α3β2 [1]) was 130000 M⁻¹ s⁻¹, the koff (rat nAChR α3β2 [1]; SEM) was 0.00407 s⁻¹ and the IC50 (rat nAChR α3β4) was 850 nM.

`CC(C)C[C@@H]1NC(=O)[C@H](CCC(=O)O)NC(=O)[C@@H]2CCCN2C(=O)[C@H](Cc2c[nH]cn2)NC(=O)[C@H](CC(N)=O)NC(=O)CNC(=O)[C@H](Cc2c[nH]cn2)NC(=O)[C@@H]2CSSC[C@H](NC(=O)[C@H](CCC(=O)O)NC(=O)[C@@H]3CCCN3)C(=O)N[C@@H](CSSC[C@@H](C(N)=O)NC1=O)C(=O)N[C@@H]([C@@H](C)O)C(=O)N[C@@H](Cc1c[nH]cn1)C(=O)N1CCC[C@H]1C(=O)N[C@@H](C)C(=O)N2` [Mr1.7[V11G,S12N]] (H-PECCTHPACHGNHPELC-NH2; disulfide 3-9, 4-17) was tested, and the IC50 (rat nAChR α3β2 [2]) was 28.4 nM.

Compound `CC(C)C[C@@H]1NC(=O)[C@H](CCC(=O)O)NC(=O)[C@@H]2CCCN2C(=O)[C@H](Cc2c[nH]cn2)NC(=O)[C@H](CO)NC(=O)CNC(=O)[C@H](Cc2c[nH]cn2)NC(=O)[C@@H]2CSSC[C@H](NC(=O)[C@H](CCC(=O)O)NC(=O)[C@@H]3CCCN3)C(=O)N[C@@H](CSSC[C@@H](C(N)=O)NC1=O)C(=O)N[C@@H]([C@@H](C)O)C(=O)N[C@@H](Cc1c[nH]cn1)C(=O)N1CCC[C@H]1C(=O)N[C@@H](C)C(=O)N2` [Mr1.7[V11G]] (H-PECCTHPACHGSHPELC-NH2; disulfide 3-9, 4-17) has an IC50 (rat nAChR α3β2 [2]) of 138 nM.

`CC(C)C[C@@H]1NC(=O)[C@H](CCC(=O)O)NC(=O)[C@@H]2CCCN2C(=O)[C@H](Cc2c[nH]cn2)NC(=O)[C@H](CO)NC(=O)[C@H](C(C)C)NC(=O)[C@H](Cc2c[nH]cn2)NC(=O)[C@@H]2CSSC[C@H](NC(=O)[C@H](CCC(=O)O)NC(=O)[C@@H]3CCCN3C(=O)[C@@H](N)CCCNC(=N)N)C(=O)N[C@@H](CSSC[C@@H](C(N)=O)NC1=O)C(=O)N[C@@H]([C@@H](C)O)C(=O)N[C@@H](Cc1c[nH]cn1)C(=O)N1CCC[C@H]1C(=O)N[C@@H](C)C(=O)N2` [RaaMr1.7] (H-RPECCTHPACHVSHPELC-NH2; disulfide 4-10, 5-18; N-terminus assumed) gave an IC50 (rat nAChR α3β2 [2]) of 41.2 nM.
